# Source: patent US20260285846A1, “REV-ERB AGONISTS FOR TH17-MEDIATED INFLAMMATORY DISORDERS” (UNIVERSITY OF FLORID RESEARCH FOUNDATION, iNCORPORATED, priority 2021, published 2026)
# Target: REV-ERBα LBD (Homo sapiens, UniProt P20393, DEL324-422)
# Assay: biochemical
# Settings: FRET assay; 6xHistag-REV-ERBα LBD with FITC-labeled SMRT corepressor peptide; read-out: REVERBα (Agonism of REV-ERBα, EC50)
# Outline: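 Serially diluted ligands were incubated 2 h at 4° C, in triplicate, with E. coli-expressed His-REV-ERBα LBD (281-614 Δ324-422 or 381-579; 4 nM), Tb-anti-His (1 nM) and FITC-labelled SMRT peptide (400 nM). EC50 came from sigmoidal fits of the 520/495 nm TR-FRET ratio.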
# REV-ERBα LBD, sequence (P20393 with tags, fused parts or gaps DEL324-422): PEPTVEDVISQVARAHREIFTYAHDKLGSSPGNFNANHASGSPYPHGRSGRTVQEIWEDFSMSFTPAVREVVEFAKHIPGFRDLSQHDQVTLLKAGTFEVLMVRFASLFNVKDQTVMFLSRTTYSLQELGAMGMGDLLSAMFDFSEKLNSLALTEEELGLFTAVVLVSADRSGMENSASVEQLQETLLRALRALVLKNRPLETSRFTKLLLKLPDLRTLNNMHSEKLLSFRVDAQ
# REV-ERBα LBD, sequence (Q9Y618 2335-2356 partner limits assumed): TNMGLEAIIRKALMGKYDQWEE
row,EC50 [nM],SMILES
1,< 100,"Cc1ncccc1-c1cc2c(cc1F)c(C(C)NS(=O)(=O)C1CC1)cn2CC(C)(C)C (stereo not shown) [Compound 36, N-(1-(5-fluoro-6-(2-methylpyridin-3-yl)-1-neopentyl-1H-indol-3-yl)ethyl)cyclopropanesulfonamide]"
2,< 100,"CC(C)(C)Cn1cc([C@H](NS(=O)(=O)C2CC2)C(F)F)c2ccc(-c3cccnc3C(F)F)cc21 [Compound 87, (S)—N-(1-(6-(2-(difluoromethyl)pyridin-3-yl)-1-neopentyl-1H-indol-3-yl)-2,2-difluoroethyl)cyclopropanesulfonamide]"
3,< 100,"O=S(=O)(N[C@@H](c1cn(C2CCC2)c2cc(-c3ncc(F)cc3C(F)(F)F)c(F)cc12)C(F)F)C1CC1 [Compound 156, (S)—N-(1-(1-cyclobutyl-5-fluoro-6-(5-fluoro-3-(trifluoromethyl)pyridin-2-yl)-1H-indol-3-yl)-2,2-difluoroethyl)cyclopropanesulfonamide]"
4,100 to 1000,"CC(C)(C)Cn1cc([C@H](NS(=O)(=O)C2CC2)C(F)(F)F)c2cc(F)c(-c3cccnc3C(F)(F)F)cc21 [Compound 8, (S)—N-(2,2,2-trifluoro-1-(5-fluoro-1-neopentyl-6-(2-(trifluoromethyl)pyridin-3-yl)-1H-indol-3-yl)ethyl)cyclopropanesulfonamide]"
